Measured values as given in US5972975A, “Substituted 2-aminopyridines as inhibitors of nitric oxide synthase” (priority 1997, dated 1999).
Structures can show the parent of a compound that is named as a salt.

Tests used:
ecNOS = ecNOS (Homo sapiens, UniProt P29474); assay: NOS activity: L-[3H]citrulline formation from L-[3H]arginine, ecNOS; format: biochemical; conditions: Table 2; ecNOS; 1 μM L-Arg, pH 7.5, room temperature, 30 minutes; read-out: ecNOS (IC50)
Experimental: (§1) NOS activity is measured as the formation of L-[2,3,4,5-^3 H]Citrullinefrom L-[2,3,4,5-^3 H]Arginine. The incubation buffer (100 μL) contained; 100 mM TES, pH 7.5, 5 μM FAD, 5 μM FMN, 10 μM BH4, 0.5 mM NADPH, 0.5 mM DTT, 0.5 mg/mL BSA, 2 mM CaCl2, 10 μg/mL calmodulin (bovine), 1 μM L-Arg, 0.2 μCi L-[2,3,4,5-^3 H]Arg, and the inhibitor in aqueous DMSO (max. 5%). The reaction is initiated by addition of enzyme. Incubations are performed at room temperature for 30 minutes and stopped by the addition of an equal volume of quenching buffer consisting of 200 mM sodium citrate, pH 2.2, 0.02% sodium azide. Reaction products are separated by passing through a cation exchange resin and quantitated as cpm by scintillation counting.

iNOS = iNOS (Homo sapiens, UniProt P35228); assay: NOS activity: L-[3H]citrulline formation from L-[3H]arginine, iNOS; format: biochemical; conditions: Table 2; iNOS; 1 μM L-Arg, pH 7.5, room temperature, 30 minutes; read-out: iNOS (IC50)
Experimental: as §1

ncNOS = ncNOS (Homo sapiens, UniProt P29475); assay: biochemical; conditions: Table 2; ncNOS; 1 μM L-Arg, pH 7.5, room temperature, 30 minutes; read-out: ncNOS (IC50)
Sequence of ncNOS (P29475 whole entry): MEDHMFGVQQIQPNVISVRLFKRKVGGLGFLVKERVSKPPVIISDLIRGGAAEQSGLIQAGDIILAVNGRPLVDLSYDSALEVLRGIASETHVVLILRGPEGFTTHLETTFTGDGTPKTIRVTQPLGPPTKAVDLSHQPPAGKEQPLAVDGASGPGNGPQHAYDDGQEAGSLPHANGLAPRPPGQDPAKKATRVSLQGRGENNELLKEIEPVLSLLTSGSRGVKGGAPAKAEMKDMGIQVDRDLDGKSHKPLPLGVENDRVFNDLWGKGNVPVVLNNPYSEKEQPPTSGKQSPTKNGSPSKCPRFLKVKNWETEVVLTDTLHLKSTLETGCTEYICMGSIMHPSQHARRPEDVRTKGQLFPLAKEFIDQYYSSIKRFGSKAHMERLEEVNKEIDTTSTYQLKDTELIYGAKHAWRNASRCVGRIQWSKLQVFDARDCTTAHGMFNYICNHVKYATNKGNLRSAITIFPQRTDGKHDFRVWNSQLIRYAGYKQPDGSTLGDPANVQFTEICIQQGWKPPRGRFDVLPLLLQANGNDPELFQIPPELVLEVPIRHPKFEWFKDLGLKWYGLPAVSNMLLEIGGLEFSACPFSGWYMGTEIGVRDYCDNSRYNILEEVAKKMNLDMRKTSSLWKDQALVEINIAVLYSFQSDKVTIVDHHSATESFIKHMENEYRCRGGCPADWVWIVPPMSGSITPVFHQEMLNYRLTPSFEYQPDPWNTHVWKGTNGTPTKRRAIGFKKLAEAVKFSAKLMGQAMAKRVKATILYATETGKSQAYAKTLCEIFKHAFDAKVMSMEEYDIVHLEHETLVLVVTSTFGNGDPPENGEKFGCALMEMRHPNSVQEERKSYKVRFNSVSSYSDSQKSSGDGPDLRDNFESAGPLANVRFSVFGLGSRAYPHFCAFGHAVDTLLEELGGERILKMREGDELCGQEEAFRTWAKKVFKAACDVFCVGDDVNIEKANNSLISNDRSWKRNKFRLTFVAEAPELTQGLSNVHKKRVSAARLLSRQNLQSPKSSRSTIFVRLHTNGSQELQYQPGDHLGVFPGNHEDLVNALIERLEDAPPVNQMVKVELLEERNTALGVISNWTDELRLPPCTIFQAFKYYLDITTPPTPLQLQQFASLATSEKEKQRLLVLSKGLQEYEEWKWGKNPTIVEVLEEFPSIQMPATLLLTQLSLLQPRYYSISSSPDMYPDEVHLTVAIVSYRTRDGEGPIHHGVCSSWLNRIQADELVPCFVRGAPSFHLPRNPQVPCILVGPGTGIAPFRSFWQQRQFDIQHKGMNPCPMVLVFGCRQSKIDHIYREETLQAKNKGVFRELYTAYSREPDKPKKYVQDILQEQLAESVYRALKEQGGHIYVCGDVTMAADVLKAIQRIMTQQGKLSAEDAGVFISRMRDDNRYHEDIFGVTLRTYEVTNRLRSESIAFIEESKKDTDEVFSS

Row | IC50 (ecNOS) | IC50 (iNOS) | IC50 (ncNOS) | Compound
1 | < 50 µM | < 10 µM | < 10 µM | Cc1cc(N)nc2c1CCCC2 [Example 63, 2-Amino-4-methyl-5,6,7,8-tetrahydroquinoline]
2 | < 50 µM | < 50 µM | < 50 µM | Nc1nccc2c1CCCC2 [Example 65, 1-Amino-5,6,7,8-tetrahydroisoquinoline]
3 | < 10 µM | < 1 µM | < 1 µM | Cc1cc(N)nc(CCCN)c1 [Example 66, 2-Amino-6-(3-aminopropyl)-4-methylpyridine]
4 | < 50 µM | < 50 µM | < 10 µM | Cc1cc(N)nc(CCCc2ccccc2)c1 [Example 69, 2-Amino-4-methyl-6-(3-phenylpropyl)pyridine]
5 | < 10 µM | < 10 µM | < 10 µM | Cc1cc(N)nc(CCCCc2ccccc2)c1 [Example 70, 2-Amino-4-methyl-6-(4-phenylbutyl)pyridine]
6 | < 10 µM | < 1 µM | < 1 µM | Cc1cc(N)nc(CCC(C)C)c1 [Example 71, 2-Amino-4-methyl-6-(3-methylbutyl)pyridine]
7 | < 1 µM | < 1 µM | < 1 µM | Cc1cc(N)nc(CC(C)C)c1 [Example 72, 2-Amino-4-methyl-6-(2-methylpropyl)pyridine]
8 | < 10 µM | < 10 µM | < 10 µM | Cc1cc(N)nc(CCc2ccccc2)c1 [Example 73, 2-Amino-4-methyl-6-(2-phenylethyl)pyridine]
9 | < 1 µM | < 10 µM | < 10 µM | Cc1cc(N)nc(CCCCC(=O)O)c1 [Example 74, 5-(6-Amino-4-methyl-2-pyridinyl)pentanoic acid hydrochloride]
10 | < 1 µM | < 10 µM | < 10 µM | Cc1cc(N)nc(CCCC(=O)O)c1 [Example 75, 4-(6-Amino-4-methyl-2-pyridinyl)butanoic acid hydrochloride]
11 | < 10 µM | < 1 µM | < 1 µM | Cc1cc(N)nc(CC[C@H](C)N)c1 [Example 76, (S)-2-Amino-6-(3-aminobutyl)-4-methylpyridine]
12 | < 50 µM | < 10 µM | < 1 µM | Cc1cc(N)nc(CC[C@@H](C)N)c1 [Example 77, (R)-2-Amino-6-(3-aminobutyl)-4-methylpyridine]

Row | Compound | IC50 (ecNOS) | IC50 (iNOS) | IC50 (ncNOS)
13 | Cc1cc(N)nc(CCN)c1 [Example 67, 2-Amino-6-(2-aminoethyl)-4-methylpyridine] | < 50 µM | < 1 µM | < 1 µM
